Like-named read-outs stand apart in the source and are kept apart here.
Experiments:
human NPY Y5 receptor = molecular target: T1, human NPY Y5 receptor (Homo sapiens, UniProt Q15761); assay: NPY binding inhibition test ([125I]peptide YY binding to membranes of NPY Y5 receptor expression cells); conditions: [125I]peptideYY, membranes of NPY Y5 receptor expressing cells, 25° C., 2 hours; read-out: 50% Inhibitory Concentration (IC50) against specific peptide YY binding
T1 construct: expressed in transfected cells; host or cells: COS-7, CHO and LM(tk-)
T1 sequence (Q15761 1-445): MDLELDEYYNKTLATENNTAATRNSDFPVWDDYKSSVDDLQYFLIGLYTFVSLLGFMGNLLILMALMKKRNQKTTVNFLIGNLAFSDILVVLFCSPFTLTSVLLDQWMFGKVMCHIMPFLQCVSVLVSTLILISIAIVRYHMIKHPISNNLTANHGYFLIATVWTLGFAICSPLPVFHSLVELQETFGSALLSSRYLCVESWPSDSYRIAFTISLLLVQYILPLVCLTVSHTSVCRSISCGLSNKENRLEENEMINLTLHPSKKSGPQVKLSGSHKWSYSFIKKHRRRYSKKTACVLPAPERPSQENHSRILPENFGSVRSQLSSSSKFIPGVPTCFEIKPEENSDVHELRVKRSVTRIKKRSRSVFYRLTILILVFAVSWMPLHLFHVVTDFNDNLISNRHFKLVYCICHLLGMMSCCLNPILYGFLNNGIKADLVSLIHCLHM
Text: Pharmacological Test 1 (NPY Binding Inhibition Test)
cDNA sequence encoding human NPY Y5 receptor (c.f. International patent publication WO96/16542) was cloned into expression vectors pcDNA3, pRc/RSV (made by Invitrogen Inc.) and pCI-neo (made by Promega Inc.). The expression vectors thus obtained were transfected to host cells COS-7, CHO and LM(tk−) (American Type Culture Collection) by cationic lipid method (Proceedings of the National Academy of Sciences of the United States of America, vol. 84: p. 7413(1987)) to give NPY Y5 receptor expression cells.
A membrane sample prepared from the cells which expressed NPY Y5 receptor was incubated together with a test compound and [^125I]peptideYY (made by NEN) (20,000 cpm) in an assay buffer (25 mM Tris buffer, pH7.4, containing 10 mM magnesium chloride, 1 mM phenylmethylsulfonyl fluoride, 0.1% bacitracin and 0.5% bovine serum albumin) at 25° C. for 2 hours, then filtered through a glass filter GF/C and washed with 5 mM Tris buffer (pH7.4) containing 0.3% BSA. The radioactivity of the cake on the glass filter was measured. Non-specific binding was measured in the presence of 1 μM peptide YY, and a 50% Inhibitory Concentration (IC50) of the test compound against specific peptide YY binding was determined (Endocrinology, vol. 131: p. 2090(1992)).

Pharmacokinetics test = type: in vivo; conditions: rat, plasma, male SD rats, overnight fasting
Method: Pharmacological Test 3 (Pharmacokinetics Test)
A test compound was orally or intravenously administered to male SD rats (7–10 weeks old, 200–400 g) under the overnight fasting condition. About 100 μL of blood was collected from the tail vein by heparinized capillary at designated time. The blood was centrifuged (4° C., 6,000 r.p.m., 10 minutes) to obtain the plasma. Three-fold amount of ethanol containing an internal standard was added to plasma. The mixture was stirred, allowed to stand at −20° C. for 20 minutes, and then centrifuged (4° C., 10,000 r.p.m., 10 minutes). The supernatant was analyzed by LC/MS/MS, and the concentration of the test compound in the plasma was measured using a relative calibration curve.

[1] = Brain/cerebrospinal fluid transport test; type: in vivo, male SD rats; conditions: rat, one hour after oral administration (10 mg/kg); for concentration at 1 h: male, SD
Method: Pharmacological Test 4 (Brain/Cerebrospinal Fluid Transport Test)
A test compound was orally or intravenously administered to male SD rats (7–10 weeks old, 200–400 g), and whole blood was collected from the abdominal aorta using a heparin-treated syringe under the ether anesthesia at designated time. Then, the head skin was cut out, and a dental 30 G needle was inserted between the cervical vertebrae, and it was further inserted into the cavum subarachnoideum. After 50 to 100 μL cerebrospinal fluid had been collected by a 1 ml-syringe through a tube connected to the dental 30 G needle, the brain was extracted. The blood sample was centrifuged (4° C., 6,000 r.p.m., 10 minutes) to obtain the plasma, and 3-fold amount of ethanol containing an internal standard was added and stirred. The brain sample was homogenized after addition of 2 ml water, and an aliquot of the homogenate was taken and 3-fold amount of ethanol containing an internal standard was added and stirred. The cerebrospinal fluid was stirred after adding 3-fold amount of ethanol containing an internal standard. These samples were allowed to stand at −20° C. for 20 minutes, and then centrifuged (4° C., 12,000 g, 10 minutes). The supernatant was analyzed by LC/MS/MS, and the concentration of the test compound in the plasma, brain, and cerebrospinal fluid were measured by the method using a relative calibration curve.

general symptoms = assay: General symptoms observation; type: in vivo; conditions: mice, 100 mg/kg orally, observed 0.5 to 24 hours after administration
Method: Pharmacological Test 5 (General Symptoms Observation)
A test compound was orally administered to male ICR mice (4–6 weeks old) under the overnight fasting condition, and general symptoms were observed 0.5, 1, 2, 3, 4 and 24 hours after the administration. The following 28 items were observed: stereotypy, glooming, vocalization, exploratory behavior, motor coordination, Straub tail reaction, tremor, convulsion, body posture, piloerection, writhing, palpebral opening, exophthalmos, skin color, respiratory rate, urination, defecation, salivation, lacrimation, startle response, aggression, grip strength, corneal reflex, body temperature, body tone, righting reflex, pain response and death.

[2] = tested on: gastrointestinal motility; assay: Gastrointestinal motility (charcoal transportation); type: in vivo, male ICR mice; conditions: mice, 100 mg/kg orally, charcoal one hour later
Method: Pharmacological Test 6 (Gastrointestinal Motility) A test compound was orally administered to male ICR mice (4–6 weeks old) under the overnight fasting condition and, one hour later, 0.5% charcoal suspension (0.1 ml/10 g body weight) was orally administered. One hour after the administration of the charcoal, gastrointestinal tracts of the animals were removed, and length of the intestine from pylorus to the point to which charcoal reached was measured to obtain charcoal transportation ratio.

canine cardiac function = assay: Canine cardiac function; type: in vivo, male beagle dogs; conditions: anesthetized beagle dogs, 3 mg/kg and 10 mg/kg via vein cannula, up to 60 minutes
Text: Pharmacological Test 7 (Canine Cardiac Function)
The left femoral artery and vein of male beagle dogs (age: 9 months or older, weight: 10–15 kg) under anesthesia with isoflurane and artificial respiration were respectively cannulated for determination of arterial pressure and for administration of drugs. A tip catheter pressure transducer was placed in the left ventricle from the left carotid artery for determination of the left ventricular pressure. A Swan-Ganz catheter was placed in the pulmonary artery from the jugular vein via the right ventricle for determination of the pulmonary artery pressure, right atrium pressure and cardiac output. A transit doppler flow probe was attached to the right femoral artery for determination of the femoral blood flow. After completion of the operation, a solvent was administered from the cannula in the vein, followed by administration of a drug to be tested. Each parameter was determined just after the administration, and 10, 20, 30 and 60 minutes after the administration. The parameters determined were artery pressure, left ventricular pressure, pulmonary artery pressure, right atrium pressure, cardiac output, femoral blood flow, heart rate, electrocardiogram, left ventricular contractile performance (first differential of the left ventricular pressure), total peripheral vascular resistance, body temperature and arterial blood gas.

## C[C@@H]1NC(c2cccc(=O)[nH]2)=N[C@]1(c1ccc(F)cc1)c1ccnc(F)c1 [Example 1, 6-[(4R,5S)-4-(4-fluorophenyl)-4-(2-fluoro-4-pyridyl)-5-methyl-2-imidazolin-2-yl]-2(1H)-pyridinone]
Human NPY Y5 receptor
  IC50: 2.8 nM
Pharmacokinetics test; oral or intravenous administration
  bioavailability: 51%
Pharmacokinetics test
  half-life: 150 min
[1]; cerebrospinal fluid, read-out: concentration in the cerebrospinal fluid
  concentration at 1 h: 106 nM
[1]; plasma, read-out: concentration in the plasma
  concentration at 1 h: 2790 nM
[1]
  concentration in the brain: 0.29 nmol/g
General symptoms
  effect on general symptoms (28 items): did not affect
[2]
  effect on gastrointestinal motility (charcoal transportation ratio): did not affect
Canine cardiac function
  effect on canine cardiac function: did not affect

From US7119107B2, “Pyridone derivatives” (Banyu Pharmaceutical Co., Ltd., priority 2002, dated 2006)
